Experimental data: patent US20060216333A1, “Methods related to the treatment of mucosal associated conditions” (priority 2003, published 2006)
Marks after values point to notes of the source that are not given here.

Experiments:
Type in all cases: in vivo, rat
[1] = system: rats; experiment: Histologic examination of vaginas and vulvas, Example 9; conditions: removed after 2 hours, necropsied 22 hours after removal; for Vagina Erosion or ulceration / Vulva Erosion or ulceration: incidence; for Vagina Inflammation / Vulva Inflammation: mean score, 0=none to 4=severe
Protocol: Devices were prepared from either cotton as described in Example 1 or from polyurethane foam (Medisorb 100—1.25:Polysorbate 60 at 1% concentration at 1.25/1 ratio, from Lendell Manufacturing, Inc, St. Charles, Mich.). The devices were saturated with one of the following solutions: 0.1% ERM 3 in 50/50 ISA/IPM; 1.0% IRM 3 in 50/50 ISA/IPM; 3.0% IRM 3 in 50/50 ISA/IPM or with 50/50 ISA/IPM (vehicle). Rats were dosed intravaginally; the devices were removed after 2 hours. […] Cytokines were assayed at 4 hours post dosing. The results are shown in the table below where each value is the mean of the values for 3 rats.
(§1) Groups of 3 rats were treated as described in Example 5 and necropsied 22 hours after the devices were removed. Vaginas and vulvas were collected, fixed and processed routinely for histologic examination. Inflammation was scored as follows: 0=none, 1=minimal, 2=mild, 3=moderate, 4=severe. The values in the tables are the mean of the scores for 3 rats.

[2] = system: MCP-1; experiment: Serum and vaginal tissue MCP-1 after intravaginal dosing of rats (ELISA); conditions: for MCP-1 Tissue: vaginal tissue, per 200 mg
Protocol: (§2) In the examples below the serum and intravaginal cytokine data were obtained using the following general test method.
(§3) Rats were acclimated to collars (Lomir Biomedical, Malone, N.Y.) around the neck on two consecutive days prior to actual dosing. Rats were collared to prevent removal of the device and ingestion of the drug. Animals were then dosed intravaginally with a removable device or with […] of cream. Single dosed rats received one intravaginal dose with samples collected at various times following dosing. Blood was collected by cardiac puncture. Blood was allowed to clot briefly at room temperature and serum was separated from the clot via centrifugation. The serum was stored at −20° C. until it was analyzed for cytokine concentrations.
(§4) Following blood collection, the rats were euthanized and their vaginal tract, including the cervix, was then removed and the tissue was weighed, placed in a sealed 1.8 mL cryovial and flash frozen in liquid nitrogen. The frozen vaginal tissue sample was then suspended in 1.0 mL of RPMI medium (Celox, St. Paul, Minn.) containing 10% fetal bovine serum (Atlas, Fort Collins, Colo.), 2 mM L-glutamine, penicillin/streptomycin and 2-mercaptoethanol (RPMI complete) combined with a protease inhibitor cocktail set III (Calbiochem, San Diego, Calif.). The tissue was homogenized using a Tissue Tearor (Biospec Products, Bartlesville, Okla.) for approximately one minute. The tissue suspension was then centrifuged at 2000 rpm for 10 minutes under refrigeration to pellet the debris, and the supernatant collected and stored at −20° C. until analyzed for cytokine concentrations.
(§5) ELISA kits for rat TNF were purchased from BD PharMingen (San Diego, Calif.) and the rat MCP-1 ELISA kits were purchased from BioSource Intl. (Camarillo, Calif.).
(§6) Both kits were performed according to manufacturer's specifications. Results for both TNF and MCP-1 are expressed in pg/mL and are normalized per 200 mg of tissue. […] “Post dosing” means after treatment initiation. For example, if a device was inserted a time 0 hours and removed at 2 hours and cytokines were assayed at 4 hours, then the cytokines were assayed at 4 hours post dosing.

[3] = system: TNF; experiment: Serum and vaginal tissue TNF after intravaginal dosing of rats (ELISA); conditions: for TNF Tissue: vaginal tissue, per 200 mg
Protocol: as §2, §3, §4, §5, §6

[4] = system: rats; experiment: Histologic examination of vaginas and vulvas, Example 10; conditions: necropsied 24 hours after treatment initiation
Protocol: as §1
Cotton devices were prepared as described in Example 1. The devices were saturated with a solution containing 5% by weight of IRM 3 in 50/50 w/w isostearic acid/isopropyl myristate. One group of 5 rats was dosed intravaginally with the devices. The devices were removed after 2 hours. A second group of 5 rats was dosed intravaginally with 5% IRM 3 cream. The cream was washed out after 2 hours. A third group of 5 rats was dosed intravaginally with 5% IRM 3 cream but the cream was not removed. The rats were necropsied 24 hours after treatment initiation. Vaginas and vulvas were collected, fixed and processed routinely for histologic examination. The scoring system described in Example 9 was used.

[5] = 2 hr post dose, 5% in 50/50 ISA/IPM, cotton pellet device removed after 2 hours, Example 7
[6] = 4 hours post dosing, 0.1% in 50/50 ISA/IPM, cotton device removed after 2 hours, Example 5
[7] = 4 hours post dosing, 0.1% in 50/50 ISA/IPM, foam device removed after 2 hours, Example 5
[8] = 4 hours post dosing, 1.0% in 50/50 ISA/IPM, cotton device removed after 2 hours, Example 5
[9] = 4 hours post dosing, 1.0% in 50/50 ISA/IPM, foam device removed after 2 hours, Example 5
[10] = 4 hours post dosing, 3.0% in 50/50 ISA/IPM, cotton device removed after 2 hours, Example 5
[11] = 4 hours post dosing, 3.0% in 50/50 ISA/IPM, foam device removed after 2 hours, Example 5
[12] = 4 hr post dose, 5% in 50/50 ISA/IPM, cotton pellet device removed after 2 hours, Example 7
[13] = 6 hr post dose, 5% in 50/50 ISA/IPM, cotton pellet device removed after 2 hours, Example 7
[14] = incidence, cotton device 5% removed after 2 hours

Question: Which “Vagina Erosion or ulceration” value ([1]; cotton device 0.1%) does the source give for `CC(C)Cn1cnc2c(N)nc3cccnc3c21` [IRM 3, 1-(2-methylpropyl)-1H-imidazo[4,5-c][1,5]naphthyridin-4-amine] here?
Answer: The value was 0/3.

Question: And the “Vulva Erosion or ulceration” value ([1]; cotton device 0.1%)?
Answer: Its value is 0/3.

Question: What about the “Vagina Erosion or ulceration” value ([1]; cotton device 1.0%) of the same molecule?
Answer: Its value is 0/3.

Question: And the “Vulva Erosion or ulceration” value ([1]; cotton device 1.0%, tissue from 1 rat not assessable)?
Answer: The value was 0/2*.

Question: And the “Vagina Erosion or ulceration” value ([1]; cotton device 3.0%)?
Answer: The value was 0/3.

Question: What about the “Vulva Erosion or ulceration” value ([1]; cotton device 3.0%) of the same molecule?
Answer: The value was 0/3.

Question: What about the “Vagina Erosion or ulceration” value ([1]; foam device 0.1%) of the same molecule?
Answer: The value was 0/3.

Question: What about the “Vulva Erosion or ulceration” value ([1]; foam device 0.1%) of the same molecule?
Answer: Its value is 0/3.

Question: What about the “Vagina Erosion or ulceration” value ([1]; foam device 1.0%) of the same molecule?
Answer: The value was 0/3.

Question: And the “Vulva Erosion or ulceration” value ([1]; foam device 1.0%)?
Answer: Its value is 0/3.

Question: And the “Vagina Erosion or ulceration” value ([1]; foam device 3.0%)?
Answer: The value was 0/3.

Question: What about the “Vulva Erosion or ulceration” value ([1]; foam device 3.0%, tissue from 1 rat not assessable) of the same molecule?
Answer: The value was 0/2*.

Question: What about the “Vagina Inflammation” value ([1]; cotton device 0.1% in 50/50 ISA/IPM) of the same molecule?
Answer: The value was 1.0.

Question: And the “Vulva Inflammation” value ([1]; cotton device 0.1%)?
Answer: Its value is 0.33.

Question: And the “Vagina Inflammation” value ([1]; cotton device 1.0% in 50/50 ISA/IPM)?
Answer: The value was 2.5.

Question: What about the “Vulva Inflammation” value ([1]; cotton device 1.0%) of the same molecule?
Answer: The value was 0.5.

Question: What about the “Vagina Inflammation” value ([1]; cotton device 3.0% in 50/50 ISA/IPM) of the same molecule?
Answer: The value was 3.17.

Question: What about the “Vulva Inflammation” value ([1]; cotton device 3.0%) of the same molecule?
Answer: Its value is 2.17.

Question: What about the “Vagina Inflammation” value ([1]; foam device 0.1% in 50/50 ISA/IPM) of the same molecule?
Answer: Its value is 2.17.

Question: What about the “Vulva Inflammation” value ([1]; foam device 0.1%) of the same molecule?
Answer: Its value is 0.33.

Question: And the “Vagina Inflammation” value ([1]; foam device 1.0% in 50/50 ISA/IPM)?
Answer: Its value is 2.83.

Question: What about the “Vulva Inflammation” value ([1]; foam device 1.0%) of the same molecule?
Answer: The value was 0.33.

Question: And the “Vagina Inflammation” value ([1]; foam device 3.0% in 50/50 ISA/IPM)?
Answer: Its value is 2.5.

Question: What about the “Vulva Inflammation” value ([1]; foam device 3.0%) of the same molecule?
Answer: The value was 1.75.

Question: What about the “MCP-1 Serum” value [2, 5] of the same molecule?
Answer: Its value is 95 pg/mL.

Question: And the “MCP-1 Serum” value [2, 6]?
Answer: The value was 72 pg/mL.

Question: And the “MCP-1 Serum” value [2, 7]?
Answer: Its value is 77 pg/mL.

Question: What about the “MCP-1 Serum” value [2, 8] of the same molecule?
Answer: The value was 111 pg/mL.

Question: And the “MCP-1 Serum” value [2, 9]?
Answer: Its value is 86 pg/mL.

Question: What about the “MCP-1 Serum” value [2, 10] of the same molecule?
Answer: Its value is 79 pg/mL.

Question: And the “MCP-1 Serum” value [2, 11]?
Answer: The value was 105 pg/mL.

Question: What about the “MCP-1 Serum” value [2, 12] of the same molecule?
Answer: Its value is 114 pg/mL.

Question: And the “MCP-1 Serum” value [2, 13]?
Answer: The value was 171 pg/mL.

Question: And the “MCP-1 Tissue” value [2, 5]?
Answer: The value was 815 pg/mL.

Question: And the “MCP-1 Tissue” value [2, 6]?
Answer: The value was 179 pg/mL.

Question: What about the “MCP-1 Tissue” value [2, 7] of the same molecule?
Answer: The value was 143 pg/mL.

Question: What about the “MCP-1 Tissue” value [2, 8] of the same molecule?
Answer: The value was 468 pg/mL.

Question: What about the “MCP-1 Tissue” value [2, 9] of the same molecule?
Answer: The value was 279 pg/mL.

Question: And the “MCP-1 Tissue” value [2, 10]?
Answer: Its value is 402 pg/mL.

Question: What about the “MCP-1 Tissue” value [2, 11] of the same molecule?
Answer: The value was 351 pg/mL.

Question: And the “MCP-1 Tissue” value [2, 12]?
Answer: Its value is 1260 pg/mL.

Question: And the “MCP-1 Tissue” value [2, 13]?
Answer: Its value is 840 pg/mL.

Question: And the “TNF Serum” value [3, 5]?
Answer: Its value is 4 pg/mL.

Question: And the “TNF Serum” value [3, 6]?
Answer: The value was 0 pg/mL.

Question: And the “TNF Serum” value [3, 7]?
Answer: The value was 0 pg/mL.

Question: And the “TNF Serum” value [3, 8]?
Answer: Its value is 0 pg/mL.

Question: What about the “TNF Serum” value [3, 9] of the same molecule?
Answer: The value was 0 pg/mL.

Question: What about the “TNF Serum” value [3, 10] of the same molecule?
Answer: The value was 0 pg/mL.

Question: What about the “TNF Serum” value [3, 11] of the same molecule?
Answer: Its value is 0 pg/mL.

Question: What about the “TNF Serum” value [3, 12] of the same molecule?
Answer: Its value is 3 pg/mL.

Question: And the “TNF Serum” value [3, 13]?
Answer: The value was 5 pg/mL.

Question: And the “TNF Tissue” value [3, 5]?
Answer: The value was 809 pg/mL.

Question: And the “TNF Tissue” value [3, 6]?
Answer: The value was 108 pg/mL.

Question: And the “TNF Tissue” value [3, 7]?
Answer: Its value is 85 pg/mL.

Question: And the “TNF Tissue” value [3, 8]?
Answer: The value was 173 pg/mL.

Question: And the “TNF Tissue” value [3, 9]?
Answer: The value was 148 pg/mL.

Question: And the “TNF Tissue” value [3, 10]?
Answer: The value was 175 pg/mL.

Question: What about the “TNF Tissue” value [3, 11] of the same molecule?
Answer: The value was 302 pg/mL.

Question: What about the “TNF Tissue” value [3, 12] of the same molecule?
Answer: Its value is 608 pg/mL.

Question: And the “TNF Tissue” value [3, 13]?
Answer: Its value is 114 pg/mL.

Question: And the Vagina - erosion [4, 14]?
Answer: Its Vagina - erosion is 0/5.

Question: What about the Vagina - ulceration [4, 14] of the same molecule?
Answer: Its Vagina - ulceration is 0/5.

Question: And the Vulva - preulcer [4, 14]?
Answer: The Vulva - preulcer was 3/5.

Question: And the Vulva - ulceration [4, 14]?
Answer: Its Vulva - ulceration is 0/5.

Question: And the “Vagina - Inflammation” value ([4]; mean score, 0=none to 4=severe, cotton device 5% in 50/50 ISA/IPM removed after 2 hours)?
Answer: The value was 3.1.

Question: And the “Vulva - Inflammation” value ([4]; mean score, 0=none to 4=severe, cotton device 5% removed after 2 hours)?
Answer: The value was 1.7.
